Measured values as given in US8080535B2, “Hyaluronic acid nutritional supplements and methods of using the same” (Leneau Holdings, LLC, priority 2001, dated 2011).

Legend:
[1] = system: patients suffering from osteoarthritis; test: Oral ingestion of hyaluronic acid by patients suffering from osteoarthritis, subjective pain feeling; type: in vivo, human; settings: of sixty-seven osteoarthritis patients; 1-4 mg oral 1 to 4 times a day
Protocol: A study involving sixty-seven patients suffering from osteoarthritis was undertaken to determine the effectiveness of oral ingestion of hyaluronic acid. Each patient received 1-4 mg of hyaluronic acid by oral ingestion administration 1 to 4 times a day over periods ranging from about […], during which period the patients' subjective pain feeling was reported. […] Fourteen patients reported no change in the amount of pain they felt.

[2] = system: human patients suffering pain and discomfort associated with fibromyalgia; test: Oral ingestion of hyaluronic acid by patients afflicted with fibromyalgia, subjective pain feeling; type: in vivo
Protocol: Another study involving thirty-five human patients suffering pain and discomfort associated with fibromyalgia was undertaken to evaluate the effectiveness of oral ingestion of hyaluronic acid. Each patient received about 1 to about 6 mg of hyaluronic acid by oral ingestion administration of concentrate diluted into beverages or food. Over a treatment period of about 1 to about 14 months, the patients' subjective pain feeling was reported. Twenty-one patients reported no pain after hyaluronic acid therapy. Six patients (17.1%) reported some (60%) degree of pain relief. Eight patients reported no change in the amount of pain they felt.

[3] = system: human patients suffering pain and discomfort associated with rheumatoid arthritis; test: Oral ingestion of hyaluronic acid by patients afflicted with rheumatoid arthritis, subjective pain score 0 to 10; type: in vivo; settings: scale 0 to 10; about 1 mg oral solution for 30 days; average prior to the study 8.47; 15 of seventeen patients responded
Protocol: Another study involving seventeen human patients suffering pain and discomfort associated with rheumatoid arthritis was undertaken. Each patient received about 1 mg of an oral hyaluronic acid solution for a period of 30 days. Each patient was asked to evaluate his or her subjective pain feeling and report the score on a scale of 0 to 10, wherein 0 means no pain and/or stiffness whatsoever and 10 means worst imaginable pain and/or stiffness. Prior to the start of the study, the patients reported as follows: […]

[4] = of thirty-five fibromyalgia patients, about 1 to about 6 mg oral, about 1 to about 14 months

Substance: hyaluronic acid
- patients reported no change in the amount of pain [1]: Fourteen
- patients reported no pain and increased range of motion [1]: Twenty-nine
- patients reported no pain and increased range of motion (percent of patients) [1]: 43.3%
- patients reported some degree of pain relief and some increased range of motion [1]: Twenty-four
- patients reported some degree of pain relief and some increased range of motion (percent of patients) [1]: 35.8%
- patients reported no change in the amount of pain [2, 4]: Eight
- patients reported no pain after hyaluronic acid therapy [2, 4]: Twenty-one
- patients reported some degree of pain relief [2, 4]: Six
- patients reported some degree of pain relief (percent of patients) [2, 4]: 17.1%
- some (60%) degree of pain relief ([2]; printed in brackets in the sentence on the six patients with some pain relief): 60%
- average subjective pain and/or stiffness score at completion of the 30-day study [3]: 3.47
